Several values for one entry are separate records, joined by “and”; a condition that tells them apart may be missing. Equal values may be shown once. Each block holds one molecule with its values, some of them ahead of it.
What was measured:
[1] = DPPH free radical scavenging; details: 30 mins, 517 nm
Protocol: The DPPH scavenging assay was conducted by the method of Sanchez-Moreno et al. with some modifications. DPPH (0.1 mM) stock solution was diluted in methanol, and the absorbance was adjusted to 1.5 at 517 nm wavelength. […] extracts (500 μl) at different concentrations (15.62, 31.25, 62.5, and 250 μg/ml) were mixed with 2000 μl of DPPH solution and read with the aid of a spectrophotometer at 517 nm after 30 mins of incubation in the dark.

ABTS radical scavenging = details: 15 mins, 734 nm
Protocol: ABTS scavenging activity was evaluated by the discoloration of the cationic radical ABTS^∗^+, as per the technique described by Arnao et al. with some modifications. Briefly, the ABTS reagent was obtained by mixing an ethanolic solution of ABTS (7.4 mM) and an aqueous solution of potassium persulfate (2.6 mM). After mixing, the solution was incubated in the dark for 24 hours. The ABTS solution obtained was diluted until an absorbance of 1.5 was obtained at 734 nm. Two hundred microliters of each extract or catechin at different concentrations (15.62, 31.25, 62.5, and 250 μg/ml) was added to 1800 μl of the ABTS solution prepared above. The mixture was incubated in the dark for 15 mins, and the absorbance was read with a spectrophotometer at 734 nm against the blank. Catechin was used as the standard. […] The IC50 was calculated as in DPPH.

[2] = target: T1, pancreatic cholesterol esterase (Sus scrofa, UniProt A0A286ZKB1); details: read-out: Cholesterol esterase IC50; p-NPB substrate
T1 sequence (A0A286ZKB1 95-682): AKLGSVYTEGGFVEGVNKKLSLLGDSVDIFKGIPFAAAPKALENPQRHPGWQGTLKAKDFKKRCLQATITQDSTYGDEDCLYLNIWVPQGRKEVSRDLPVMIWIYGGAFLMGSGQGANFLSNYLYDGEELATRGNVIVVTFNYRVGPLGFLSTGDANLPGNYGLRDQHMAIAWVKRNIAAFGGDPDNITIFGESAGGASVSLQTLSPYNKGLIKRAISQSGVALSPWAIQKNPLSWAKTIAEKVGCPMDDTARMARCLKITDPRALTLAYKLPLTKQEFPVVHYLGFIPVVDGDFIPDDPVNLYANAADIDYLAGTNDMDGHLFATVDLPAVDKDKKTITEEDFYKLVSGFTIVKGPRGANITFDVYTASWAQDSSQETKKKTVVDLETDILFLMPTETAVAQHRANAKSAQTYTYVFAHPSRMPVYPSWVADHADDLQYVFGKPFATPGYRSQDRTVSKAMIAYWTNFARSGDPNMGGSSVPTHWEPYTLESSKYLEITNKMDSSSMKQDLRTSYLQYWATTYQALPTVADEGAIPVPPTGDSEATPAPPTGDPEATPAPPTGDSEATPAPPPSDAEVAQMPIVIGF
Protocol: Briefly, 50 μl of the extracts at different concentrations (3.12, 6.25, 12.5, 25, 50, 100, and 200 μg/ml) was added to 50 μl of 5.16 mM taurocholic acid and 50 μl of an aqueous solution of cholesterol esterase and incubated for 10 mins at 25°C. Then, 50 μl of p-nitrophenyl butyrate substrate (0.2 mM) was added to the mixture and incubated for 5 mins at 25°C. Cholesterol esterase inhibitory activity was determined by measuring the hydrolysis of p-NPB to p-nitrophenol at 405 nm using an ELISA microplate reader (BK-EL10 C).
Anticholesterol esterase activity is given as IC50 values (the concentrations that inhibited 50% of the hydrolysis of pNPB to p-nitrophenol).

[3] = target: T2, porcine pancreatic lipase (Sus scrofa, UniProt P00591); assay: Pancreatic lipase inhibition; format: biochemical; details: read-out: inhibition percentage of lipase
T2 construct: purchased Sigma-Alrich Chemical Co
T2 sequence (P00591 1-450): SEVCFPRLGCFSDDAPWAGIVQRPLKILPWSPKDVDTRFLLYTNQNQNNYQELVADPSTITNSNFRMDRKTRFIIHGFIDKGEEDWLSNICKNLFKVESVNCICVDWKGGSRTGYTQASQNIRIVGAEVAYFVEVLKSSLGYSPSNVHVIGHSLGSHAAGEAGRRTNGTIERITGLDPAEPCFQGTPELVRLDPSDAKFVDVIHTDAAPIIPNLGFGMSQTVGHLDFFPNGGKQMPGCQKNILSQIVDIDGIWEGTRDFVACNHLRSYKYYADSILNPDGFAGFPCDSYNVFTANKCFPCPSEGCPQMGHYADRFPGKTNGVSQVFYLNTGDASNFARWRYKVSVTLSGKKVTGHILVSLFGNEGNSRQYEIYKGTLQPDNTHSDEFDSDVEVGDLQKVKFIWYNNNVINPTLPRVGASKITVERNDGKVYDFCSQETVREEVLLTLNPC
Protocol: The method described by Kim et al. was used in this assay. […] The mixture was then incubated at 37°C for 37 mins. The reaction was started by the addition of 10 μl of p-nitrophenyl butyrate substrate (10 mM p-NPB) in dimethylformamide.

SMILES: O=C1O[C@H]([C@@H](O)CO)C(O)=C1O [ascorbic acid]
DPPH IC50 [1]: 71.78 ± 6.37 µg/mL and 71.98 ± 1.21 µg/mL

ABTS IC50 (ABTS radical scavenging): 33.48 ± 2.02 µg/mL
SMILES: O.Oc1cc(O)c2c(c1)O[C@H](c1ccc(O)c(O)c1)[C@@H](O)C2 [catechin]

SMILES: CCCCCCCCCCC[C@@H](C[C@@H]1OC(=O)[C@H]1CCCCCC)OC(=O)[C@H](CC(C)C)NC=O [orlistat]
IC50 [2]: 110 µM
inhibition at 200 µg/mL [3]: 97.83 ± 0.34%

Reference: publication PMC9106491, “In Vitro Antioxidant, Anti-Inflammatory, and Digestive Enzymes Inhibition Activities of Hydro-Ethanolic Leaf and Bark Extracts of Psychotria densinervia (K. Krause) Verdc” (Advances in Pharmacological and Pharmaceutical Sciences, 2022)
